Laboratory results reported in US20040131701A1, “Method to treat infectious diseases and/or to enhance antimicrobial efficacy of drugs” (Virocell Inc., priority 2000, published 2004).

Legend:
[1] = system: recombinant luciferase-encoding virions (NL4-3 backbone) pseudotyped with T-tropic HXB-2D envelope; assay: Infection of Jurkat cells with luciferase-encoding virions, HXB-2D envelope; type: cell-based, HIV-1; conditions: 72 h
From the text: (§1) Fully infectious viral entities were generated by calcium phosphate transfection of 293T with pNL4-3 vector (T-tropic virions) as described below. Recombinant luciferase-encoding virus particles pseudotyped with the appropriate Env proteins have been used in our series of investigations. […] This test is based on the molecular construct pNL4-3-Luc-E-R+, a vector that carries the gene for firefly luciferase inserted into the nef gene of the pNL4-3 provirus and contains also a frameshift at the 5′ end of env (nt 5950) that prevents expression of the envelope glycoproteins. Progeny viruses were generated by cotransfecting 293T cells with pNL4-3-Luc-E-R+ and a plasmid DNA encoding for the appropriate envelope glycoproteins (T or macrophage-tropic). Briefly, a typical transfection experiment was performed as follow. In brief, 293T cells were plated 24 h before transfection at a concentration of 5×10^5 cells per 3 ml of DMEM into each well of 6-well plates. All solutions were brought to room temperature before use. Immediately before transfection, DNA was added to 25 μl of 2.5M CaCl2 and the volume was completed to 250 μl with distilled water. This solution was then added drop by drop to 250 μl of 2×HBS solution (280 mM NaCl, 50 mM HEPES, 1.5 mM Na2HPO4, pH 7.05) and the resulting mixture was stored at room temperature for 5 min. This DNA-HBS mixture was finally added drop by drop to plated 293T cells before incubation at 37° C. under a 5% CO2atmosphere. At 16 h after transfection, cells were washed twice with 3 ml of PBS and were incubated for an additional 24 h with 3 ml of DMEM supplemented with 10% FBS. Virion-containing supernatants were filtered through a 0.45-μm cellulose acetate membrane (Millipore, Mass.), aliquoted in 200 μl fractions, and were finally frozen at −85° C. until needed. Virus stocks were normalized for virion content using a commercial assay for the viral major core protein p24 (Organon Teknika, Durham, N.C.).
(§2) In brief, 100 μl of cell-free supernatant were discarded from each well and 25 μl of cell culture lysis buffer 5×(125 mM Tris phosphate [pH 7.8], 10 mM DTT, 5% Triton X-100, and 50% glycerol) were added to the wells before incubation at room temperature for 30 min. An aliquot of cell lysate (20 μl) was mixed with 100 μl luciferase assay buffer (20 mM tricine, 1.07 mM (MgCO3)4. Mg(OH)2.5H2O, 2.67 mM MgSO4, 0.1 mM EDTA, 270 μM coenzyme A, 470 μM luciferin, 530 μM ATP, and 33.3 mM DTT). Luciferase activity was monitored using a microplate luminometer (MLX; Dynex Technologies, Chantilly, Va.).
We attempted to define any putative interaction (additive, synergistic or antagonistic) between bpV compounds and currently approved anti-HIV-1 agents (AZT/Zidovudine, 3TC/Epivir/Lamivudine). […]

[2] = system: T-tropic strain HIV-1NL4-3; assay: Replication of HIV-1 in Sup-T1 cells (p24 in culture supernatants); type: cell-based; conditions: 10 days, all three tested concentrations
From the text: (§3) Fully infectious viral entities were generated by calcium phosphate transfection of 293T with pNL4-3 vector (T-tropic virions) as described below. Recombinant luciferase-encoding virus particles pseudotyped with the appropriate Env proteins have been used in our series of investigations. Such a system provides a highly sensitive and reproducible assay to monitor single-cycle viral infection events. This test is based on the molecular construct pNL4-3-Luc-E-R+, a vector that carries the gene for firefly luciferase inserted into the nef gene of the pNL4-3 provirus and contains also a frameshift at the 5′ end of env (nt 5950) that prevents expression of the envelope glycoproteins. […]
Sup-T1 cells were seeded at a density of 10^5 cells per well (100 μl) in 96-well flat-bottom, plates. […] Cells were incubated for 10 days and kinetics of viral infection was assessed by measuring in cell-free culture supernatants the major core viral p24 protein with the use of a commercial enzymatic assay (Organon Teknika). Putative toxicity of bpV molecules was assessed by adding the tetrazolium salt MTT to Sup-T1 cells that were cultured for 10 days under the constant pressure of the indicated concentrations of bpV[pic] and bpV[phen] molecules.

[3] = system: T-tropic recombinant luciferase-encoding HIV-1 particles; assay: Infection of PM1 cells with luciferase reporter virus, T-tropic envelope; type: cell-based; conditions: 5 min pretreatment, 72 h
From the text: as §3, with “glycoproteins. Progeny viruses were generated by cotransfecting 293T cells with pNL4-3-Luc-E-R+ and a plasmid DNA encoding for the appropriate envelope glycoproteins (T or macrophage-tropic). Briefly, a typical transfection experiment was performed as follow.” for “glycoproteins.”
(§4) In brief, 100 μl of cell-free supernatant were discarded from each well and 25 μl of cell culture lysis buffer 5×(125 mM Tris phosphate [pH 7.8], 10 mM DTT, 5% Triton X-100, and 50% glycerol) were added to the wells before incubation at room temperature for 30 min. […] Luciferase activity was monitored using a microplate luminometer (MLX; Dynex Technologies, Chantilly, Va.). […]

[4] = system: macrophage-tropic recombinant luciferase-encoding HIV-1 particles; assay: Infection of PM1 cells with luciferase reporter virus, macrophage-tropic envelope; type: cell-based; conditions: 5 min pretreatment, 72 h
From the text: as §3, with “glycoproteins. Progeny viruses were generated by cotransfecting 293T cells with pNL4-3-Luc-E-R+ and a plasmid DNA encoding for the appropriate envelope glycoproteins (T or macrophage-tropic). Briefly, a typical transfection experiment was performed as follow.” for “glycoproteins.”
as §4

[5] = system: recombinant luciferase-encoding virions (NL4-3 backbone) pseudotyped with macrophage-tropic ADA envelope; assay: Infection of primary human MDM with luciferase-encoding virions, ADA envelope; type: cell-based, HIV-1; conditions: 48 h; for anti-HIV-1 efficacy (luciferase activity): 10 μM bpV[pic] or 5 μM bpV[phen], pretreatment 5 to 120 min
From the text: as §1, §2

primary human MDM = assay: MTT toxicity in primary human MDM; type: cell-based; conditions: 48 h
From the text: Target cells used in the present invention include human CD4-expressing T lymphoid Sup-T1, PM1, and Jurkat cells. Moreover, primary human monocyte-derived macrophages (MDM) and peripheral blood mononuclear cells (PBMC′) were also used in the current work, MDM were obtained using a standard technique. In brief, the mononuclear cell fraction was isolated by Ficoll-Hypaque centrifugation. Peripheral blood mononuclear cells were suspended in seeding medium (RPMI 1640+20% fetal calf serum+10% human serum type AB) in tissue culture 48-well plates (3×10^6 cells/ml and 500 μl per well). Five days after the initiation of the cultures, nonadherent cells were removed by rinsing the cultures three times with phosphate buffered saline. Next, such adherent cells were maintained in RPMI 1640 medium supplemented with 20% fetal calf serum.
Putative toxicity of bpV[pic] and bpV[phen] molecules was next assessed by adding the tetrazolium salt MTT to primary human MDM that were cultured for 48 h under the constant pressure of the indicated concentrations of bpV compounds.

Sup-T1 cells = type: cell-based, human
Description: Sup-T1 cells were seeded at a density of 10^5 cells per well (100 μl) in 96-well flat-bottom, plates. Cells were either left untreated (control) or were pretreated for 5 min at 37° C. with the two different bpV molecules (bpV [pic] and bpV[phen]) at the indicated concentrations in a final volume of 200 μl. Next, both untreated and bpV-treated Sup-T1 cells were inoculated with the fully infectious T-tropic strain HIV-1NL4-3 (10 ng of p24). Culture medium was replaced twice a week and was supplemented with the appropriate final concentration of bpV molecules. Cells were incubated for 10 days and kinetics of viral infection was assessed by measuring in cell-free culture supernatants the major core viral p24 protein with the use of a commercial enzymatic assay (Organon Teknika). Putative toxicity of bpV molecules was assessed by adding the tetrazolium salt MTT to Sup-T1 cells that were cultured for 10 days under the constant pressure of the indicated concentrations of bpV[pic] and bpV[phen] molecules.

[6] = system: Human peripheral blood mononuclear cells; assay: HPLC analysis of phosphorylated forms of 3TC in PBMC's; type: cell-based; conditions: 10 μM bpV[pic], 3TC at 5, 10 and 20 μM
Description: Analysis of the cellular content in 3TC and its phosphorylated metabolites was performed by HPLC as follows. In preparations for HPLC analysis, 1 ml of a mixture of acetonitrile/water (5/95, vol/vol) and 0.5 ml water were added to each sample. The samples were vortexed and centrifuged at 1000×g for 10 min at room temperature to remove the precipitated material. The supernatants were collected and used without further treatment for HPLC analysis. Two (2) ml of each sample (total volume of ˜2.5 ml) were injected onto a Beckman Ultrasphere ODS column (4.6 mm×150 mm) protected with a Guard-Pak C18 (Waters Millipore) pre-column. 3TC and its metabolites were eluted using a linear gradient from 100% solvent A to 100% solvent B in 25 minutes at a flow rate of 1.2 ml/minute (Solvent A: 5% acetonitrile, 70% water, 25% buffer [40 mM H3PO4, 8 mM tetrabutylammonium hydroxide, adjusted to pH 6.75 with concentrated ammonium hydroxide]; Solvent B: 40% acetonitrile, 35% water, 25% buffer). The elution of metabolites was monitored by counting radioactivity using a Flow Scintillation Analyser 500TR Series (Packard); the HPLC column effluent (1.2 ml/min) was mixed with a liquid scintillation cocktail (3 ml/min) (Ultima Flow M, Packard).
Human peripheral blood mononuclear cells (PBMC's) were obtained from healthy donors subjected to lymphopheresis for 60 min. The yield of PBMC's ranged from 1.8 to 2.6 billion cells per donor. Twenty-five (25) ml fractions of the cell suspensions (obtained by lymphopheresis) were layered on cushions (15 ml) of Lymphocyte Separation Medium (Wisent) in 50 ml tubes, which were then centrifuged at room temperature at 750×g during 25 min. The purified PBMC's were collected (on top of the Ficoll cushions) and washed 3 times in HBSS (without calcium and magnesium) (500×g, 7 min. at room temperature). The cells were resuspended in RPMI containing 5% FBS at the cell concentration of 25×10^6 per ml. Incubations were carried out using 1 ml of PBMC's suspension per tube. […]

Row | Compound | virus infection (luciferase activity) ([1]; antiviral agent alone 0.05 μM) | HIV-1 production (p24) [2] | infection (luciferase activity) [3] | infection (luciferase activity) [4] | anti-HIV-1 efficacy (luciferase activity) ([5]; MDM) | toxicity (MTT) (primary human MDM; 10 and 20 μM) | toxicity (MTT) (Sup-T1 cells) | HIV-1 infection (luciferase activity) ([5]; MDM, 10 μM alone, 15 min pretreatment) | antiviral effect in combination with 3TC ([5]; MDM, 10 μM bpV[pic] with 0.035 μM 3TC, 15 min pretreatment) | anti-HIV-1 effect in combination with 3TC ([5]; MDM, 1, 5 and 10 μM bpV[pic] with 0.07 μM 3TC, 5 min pretreatment) | toxicity (MTT) (primary human MDM; 20 μM) | HIV-1 infection (luciferase activity) ([1]; bpV compound alone (2.5, 5, 10 μM)) | antiviral effect in combination with 3TC ([1]; combined with 0.05 μM 3TC) | antiviral effect in combination with AZT ([1]; combined with 0.05 μM AZT) | formation of 3TC diphosphate [6] | formation of 3TC triphosphate [6] | ratio of 3TC triphosphate over 3TC diphosphate [6]
1 | Cc1cn([C@H]2C[C@H](N=[N+]=[N-])[C@@H](CO)O2)c(=O)[nH]c1=O [AZT, Zidovudine, reference compound] | decreased |  |  |  |  |  |  |  |  |  |  |  |  |  |  |  | 
2 | O.O.O.OO.OO.[K+].[OH-].[V].c1cnc2c(c1)ccc1cccnc12 [bpV[phen], K[VO(O2)2phen]0.3H2O] |  | dramatic decrease of HIV-1 production | dose-dependent inhibition of infection | dose-dependent inhibition of infection | maintained over several pretreatment periods | detectable toxic effect |  |  |  |  |  |  |  |  |  |  | 
3 | K2[VO(O2)2pic].H2O [bpV[pic]] |  | dramatic decrease of HIV-1 production | dose-dependent inhibition of infection | dose-dependent inhibition of infection | maintained over several pretreatment periods |  | no toxic effect | inhibits HIV-1 infection | additive antiviral effect | dose-dependent additive anti-HIV-1 effect | toxic | inhibits HIV-1 infection | greater antiviral effect | greater antiviral effect | decreased | increased | consistently increases
